Source: patent publication US5284872A, “Nitrato alkanoic acid derivatives, methods for their production, pharmaceutical compositions containing the derivatives and medicinal uses thereof” (Schwarz Pharma AG, priority 1990, dated 1994)

How the values were obtained:
[1] = test system: precontracted rat aortic rings; assay: Relaxation of precontracted rat aortic rings; conditions: for EC50: read-out: EC50 of concentration-dependent relaxation; for potency relative to ISDN (factor): versus isosorbid dinitrate
Source text: Compounds SPM 5185 and SPM 5186 caused a similar concentration-dependent relaxation of precontracted rat aortic rings with a potency exceeding that of ISDN (isosorbid dinitrate) by a factor of 5 (EC50 approx. 10^-6 M).

[2] = NO release / rate of NO formation from organic nitrates; conditions: pH 7.4; for rate of NO formation: 1 mM compound, same conditions as ISDN
[3] = test system: soluble guanylate cyclase; assay: Stimulation of soluble guanylate cyclase; assay type: biochemical; conditions: for stimulation of guanylate cyclase, dependence on cysteine: with or without cysteine
conscious beagle dogs = assay: Hemodynamic profile in conscious beagle dogs; assay type: in vivo, beagle dog; conditions: for mean arterial and venous pressure: 0.01-1 μmol/kg i.v. and 1-10 μmol/kg p.o.; for arterial vessel compliance / cardiac output: i.v. and p.o.; for effectiveness in reducing arterial and central venous pressure compared with GTN (dose-response curves): versus GTN and IS-5-N
Source text: The hemodynamic profile of SPM 5185 and SPM 5186 in direct comparison to classical nitrates was investigated in conscious beagle dogs.

[4] = test system: normotonous conscious rats and spontaneous hypertensive rats; assay: Peroral application to conscious rats: arterial pressure and heart rate; assay type: in vivo, rat
[5] = test system: normotonous (WKY) and spontaneously hypertensive rats (SHR); assay: Endothelium dependent and independent blood pressure regulation in chronically instrumented conscious rats (acetylcholine and adenosine as test stimuli); assay type: in vivo, rat; conditions: single oral application
Source text: The effect of a single peroral application of SPM 5186 on endothelium dependent and independent blood pressure regulation was investigated in chronically instrumented conscious rats with acetylcholine and adenosine serving as test stimuli.

| Compound | EC50 [1] | potency relative to ISDN (factor) [1] | rate of NO formation [2] | stimulation of guanylate cyclase, dependence on cysteine [3] | estimated duration of action (conscious beagle dogs) | mean arterial and venous pressure (conscious beagle dogs) | arterial vessel compliance (conscious beagle dogs) | cardiac output (conscious beagle dogs) | effectiveness in reducing arterial and central venous pressure compared with GTN (dose-response curves) (conscious beagle dogs) | heart rate ([4]; normotonous conscious rats) | mean arterial pressure ([4]; normotonous conscious rats) | alteration of endogenous dilator mechanisms [5] | systolic and diastolic arterial blood pressure ([4]; same dose, spontaneous hypertensive rats) | spontaneous NO release ([2]; absence of exogenous cysteine, concentration of 1 mM) | stimulation of soluble guanylate cyclase ([3]; absence of exogenous cysteine) | effect of addition of cysteine on enzyme stimulation ([3]; addition of cysteine) |
| --- | --- | --- | --- | --- | --- | --- | --- | --- | --- | --- | --- | --- | --- | --- | --- | --- |
| CCOC(=O)[C@H](CSC(=O)C(C)NC(C)=O)NC(=O)C(C)(C)CO[N+](=O)[O-] (stereo partly drawn) [SPM 5185, N-nitrato-pivaloyl-S-(N-acetyl-alanyl)-L-cysteine ethyl ester] | ~1000 nM | 5 | 35.1±5.1 nM NO/min | stimulated guanylate cyclase only in the presence of cysteine | long-acting nitrates | dose-dependent decrease | enhanced | remained unaffected | even more effective than the most potent classical nitrate GTN | only a slight increase | nearly no influence | – | – | – | – | – |
| CCOC(=O)[C@H](CSC(=O)CNC(C)=O)NC(=O)C(C)(C)CO[N+](=O)[O-] [SPM 5186, N-nitrato-pivaloyl-S-(N-acetyl-glycyl)-L-cysteine ethyl ester] | ~1000 nM | 5 | 24.8±5.4 nM NO/min | stimulated guanylate cyclase only in the presence of cysteine | long-acting nitrates | dose-dependent decrease | enhanced | remained unaffected | even more effective than the most potent classical nitrate GTN | – | – | Neither in normotonous (WKY) nor in spontaneously hypertensive rats (SHR) could any significant alteration of endogenous dilator mechanisms be observed | marked decrease | – | – | – |
| CCOC(=O)[C@H](CS)NC(=O)C(C)(C)CO[N+](=O)[O-] [SPM 3672, nitratopivaline carboxylic acid-L-cysteine ethyl ester, reference compound] | – | – | – | – | – | – | – | – | – | – | – | – | – | 42.7±9.8 nM NO/min | stimulated soluble guanylate cyclase | did not further enhance enzyme stimulation |
